{"source": "paper PMC7614683", "about": "“A small molecule PI3Kα activator for cardioprotection and neuroregeneration” (Nature, 2023)", "key": {"PI3Kα-KO MEFs": {"tested_on": "PI3Kα-KO MEFs", "experiment": "pAKT S473 western blot, PI3Kα-KO MEFs", "format": "cell-based, mouse", "details": "15 min", "procedure": "Unless otherwise indicated, western blotting was performed with ECL detection. For time course studies, A549 cells were seeded at 250,000 cells per well in 6-well plates in RPMI (10% FBS + 1 mM Na-Pyruvate + 1% P/S) and allowed to adhere overnight. The next day they were serum-starved for 4 h prior to treatment with 100 nM insulin or 5 μM 1938, for the indicated time (5 min to 48 h) at 37°C, 5% CO2. For 1938 titration assays in MEFs, cells were seeded at 150,000 cells per well in 6-well plates and allowed to adhere overnight. The next day they were serum-starved for 4 h prior to treatment with insulin (1 μM), 1938 (0.2 to 30 μM, final DMSO concentration of 1.5%) or inhibitors (final DMSO concentration of ≤1.5%) for 15 min at 37°C, 5% CO2. Cells were washed twice with cold PBS and lysed using cold RIPA buffer (25 mM Tris.HCl pH 7.6, 150 mM NaCl, 1% NP-40, 1% sodium deoxycholate, 0.1% SDS supplemented with protease/phosphatase inhibitor cocktail from Merck). To remove cell debris, homogenates were spun at 13,000 rpm for 15 min at 4°C and the supernatant fraction recovered. Protein concentration was determined by colorimetric assay (BCA assay, Promega). Protein extracts were resolved by SDS-PAGE, transferred to nitrocellulose membranes, and incubated overnight at 4°C with specific antibodies as follows: anti-vinculin (Sigma #V9131) and the following antibodies from Cell Signaling Technology (CST): pAKT-S473 (CST #9271), pS6-S240/244 (CST #2215), pPRAS40-T246 (CST #2640) and total S6 (CST #2317). Primary ntibodies were used at 1:1000 dilution except anti-vinculin (1:10000). Secondary antibodies are also from Cell Signalling Technology: Anti rabbit IgG, HRP linked Antibody (CST #7074S), Anti mouse IgG, HRP linked Antibody (CST #7076S). Raw and uncropped blots are shown in Supplementary Fig. 1."}, "PI3Kα": {"biological_target": "T1, PI3Kα (Homo sapiens, UniProt P42336)", "T1 construct": "Full-length human p110α was expressed either in a complex with full-length human p85α (for HTS, biochemistry and HDX-MS); 6xHis tag followed by TEV protease site (N); host or cells: Spodoptera frugiperda Sf9, baculovirus", "T1 sequence (P42336 whole entry)": "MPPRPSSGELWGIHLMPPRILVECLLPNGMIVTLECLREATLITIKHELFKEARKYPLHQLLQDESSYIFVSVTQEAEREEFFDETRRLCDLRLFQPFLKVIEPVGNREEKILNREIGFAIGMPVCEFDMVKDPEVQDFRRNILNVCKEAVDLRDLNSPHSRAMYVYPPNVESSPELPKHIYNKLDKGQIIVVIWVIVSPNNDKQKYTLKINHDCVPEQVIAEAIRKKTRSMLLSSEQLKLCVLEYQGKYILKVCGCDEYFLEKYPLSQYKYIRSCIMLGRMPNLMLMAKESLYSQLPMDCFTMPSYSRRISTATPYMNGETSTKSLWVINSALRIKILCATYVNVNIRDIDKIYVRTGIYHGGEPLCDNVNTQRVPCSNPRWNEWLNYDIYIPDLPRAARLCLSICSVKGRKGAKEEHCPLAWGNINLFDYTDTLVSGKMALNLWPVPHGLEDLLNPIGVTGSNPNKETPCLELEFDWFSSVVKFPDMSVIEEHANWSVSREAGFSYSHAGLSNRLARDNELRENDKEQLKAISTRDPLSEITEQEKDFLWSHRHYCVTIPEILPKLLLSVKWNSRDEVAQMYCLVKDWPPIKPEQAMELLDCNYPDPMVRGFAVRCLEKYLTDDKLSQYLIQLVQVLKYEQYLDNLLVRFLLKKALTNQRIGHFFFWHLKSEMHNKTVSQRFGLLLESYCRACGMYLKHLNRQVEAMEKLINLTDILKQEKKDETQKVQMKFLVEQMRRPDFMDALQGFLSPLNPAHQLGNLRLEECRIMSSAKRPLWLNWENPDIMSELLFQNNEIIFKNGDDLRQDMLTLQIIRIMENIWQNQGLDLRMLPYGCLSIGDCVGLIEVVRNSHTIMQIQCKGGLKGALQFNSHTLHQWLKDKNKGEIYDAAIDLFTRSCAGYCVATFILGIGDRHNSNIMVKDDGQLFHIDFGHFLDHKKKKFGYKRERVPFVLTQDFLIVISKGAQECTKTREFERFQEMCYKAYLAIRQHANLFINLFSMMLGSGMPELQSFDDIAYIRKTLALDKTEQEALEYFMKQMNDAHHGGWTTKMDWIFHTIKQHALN", "T1 sequence (P27986 whole entry partner)": "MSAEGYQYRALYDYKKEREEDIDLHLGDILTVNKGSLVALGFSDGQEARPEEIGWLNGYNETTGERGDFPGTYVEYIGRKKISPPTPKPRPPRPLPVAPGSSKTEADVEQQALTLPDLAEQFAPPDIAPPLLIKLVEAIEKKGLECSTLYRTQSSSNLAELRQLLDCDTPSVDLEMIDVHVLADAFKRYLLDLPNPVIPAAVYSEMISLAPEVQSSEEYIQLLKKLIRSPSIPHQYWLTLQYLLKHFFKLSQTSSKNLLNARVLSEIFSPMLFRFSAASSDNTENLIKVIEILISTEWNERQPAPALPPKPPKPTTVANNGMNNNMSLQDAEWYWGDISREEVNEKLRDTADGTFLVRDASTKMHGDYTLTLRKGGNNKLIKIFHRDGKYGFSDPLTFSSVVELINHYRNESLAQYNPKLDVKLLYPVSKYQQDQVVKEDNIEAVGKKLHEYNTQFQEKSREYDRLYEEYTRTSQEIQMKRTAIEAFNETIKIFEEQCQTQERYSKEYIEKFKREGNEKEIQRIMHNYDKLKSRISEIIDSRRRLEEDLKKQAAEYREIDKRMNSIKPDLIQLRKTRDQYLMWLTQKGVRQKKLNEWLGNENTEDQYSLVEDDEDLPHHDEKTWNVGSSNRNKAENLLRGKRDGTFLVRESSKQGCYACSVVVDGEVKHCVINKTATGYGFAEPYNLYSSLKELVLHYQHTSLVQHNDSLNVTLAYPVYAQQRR", "experiment": "FRET membrane binding assay", "format": "biochemical", "details": "compared with pY", "procedure": "Membrane binding assays were performed as previously published. Briefly, liposomes were prepared with 5% (w/v) brain PtdIns(4,5)P2, 20% brain phosphatidylserine, 35% brain phosphatidylethanolamine, 15% brain phosphatidylcholine, 10% cholesterol, 5% sphingomyelin, and 10% dansyl-phosphatidylserine (Avanti Polar Lipids). PI3Kα was used at a final concentration of 0.5 μM. Protein solutions were preincubated with 10 μM pY or compounds for 10 min before addition of liposomes. Liposomes were used at a final concentration of 50 μg/ml. The reaction mixture contained 5 μl enzyme, 2 μl compound and 3 μl liposomes, all diluted in 30 mM HEPES, 50 mM NaCl, pH 7.4. The reaction was allowed to proceed for 10 min at room temperature with 384 black-polystyrene plates (Corning #3544) on an orbital shaker at 200 rpm. FRET signals were measured using PHERAStar (BMG) with a 280 nm excitation filter with 350 nm and 520 nm emission filters to measure Dansyl-PS FRET emissions, respectively. FRET signal shown as I-I0, where I is the intensity at 520 nm, and I0 is the intensity at 520 nm for the solution in the absence of protein."}, "PI3Kα-WT MEFs": {"tested_on": "PI3Kα-WT MEFs", "experiment": "Cell cycle progression by EdU staining, PI3Kα-WT MEFs", "format": "cell-based, mouse", "details": "24h; BYL719 as co-treatment with 1938", "procedure": "The Click-IT EdU protocol was used according to manufacturer instructions (Sigma-Aldrich #BCK-FC488-50). Briefly, MEFs were seeded at 50,000 cells per well in 6-well plates in DMEM supplemented with 10% FBS and 1% P/S, and allowed to attach overnight. The next day, cells were serum-starved for 5 h prior to compound addition for 24 h in fresh serum-free DMEM. Cells were then pulsed for 3 h with 10 μM EdU, followed by collection by trypsinization and fixation with 3.7% FA in PBS for 15 min in the dark, washed in 3% BSA and permeabilized in 1x saponin-based permeabilization buffer for 20 min in the dark. EdU was then detected using the FAM-azide assay cocktail for 30 min in the dark. Cells were washed twice in 1x saponin-based permeabilization buffer followed by analysis with flow cytometer (Novocyte Advanteon flow cytometer, Agilent). Gating strategy for flow cytometry is shown in Supplementary Fig. 2."}}, "data": [{"molecule": "CCN1CCN(c2ccc(Nc3cc(Nc4cccc5c4N(C(C)=O)CC5)ccn3)cc2)CC1", "note": "[Compound 1938]", "values": [{"measurement": "pAKT^S473 induction", "setting": "PI3Kα-KO MEFs", "value": "no pAKT^S473 signal"}, {"measurement": "PI3Kα binding to lipid membranes (FRET signal), maximum level", "setting": "PI3Kα", "value": "about half of that induced by pY"}, {"measurement": "cell cycle progression (EdU incorporation)", "setting": "PI3Kα-WT MEFs", "value": "induced cell cycle progression"}]}, {"molecule": "insulin: insulin, canonical activator of PI3Kα, used as positive control", "values": [{"measurement": "pAKT^S473 induction", "setting": "PI3Kα-KO MEFs", "value": "still respond to insulin"}, {"measurement": "cell cycle progression (EdU incorporation)", "setting": "PI3Kα-WT MEFs", "value": "did not induce cell cycle progression"}]}]}
